Test results from patent US20070244030A1, “Method for Assessing Cancerous State” (SUMITOMO CHEMICAL COMPANY, LIMITED, priority 2003, published 2007).

What was measured:
Neurofilament3 gene [1] = experiment: Real Time PCR of Neurofilament3 mRNA in PANC-1 cultured with methylation inhibitor; format: cell-based, human; conditions: PANC-1 pancreatic cancer cell line, cells recovered on fourth day, not detected without inhibitor
Protocol: (§1) Two kinds of human-derived pancreatic cancer cell lines (PANC-1 and HPAC) were seeded at a density of about 6×10^5 cells/10 cm plate, and cultured using an exclusively used medium. On the first day after seeding, 5-aza-2′-deoxytidine (manufactured by Sigma) (hereinafter, referred to as 5Aza-dC) which is a methylation inhibitor was added to a medium to give the concentration of 0.5 or 1 μM. Twenty four hours after addition of 5Aza-Dc, the medium was exchanged with the aforementioned medium to which no 5Aza-dC was added, and culturing was continued. Then, on the third day after seeding, 5Aza-dC was added to the medium similarly. […]
(§2) A reaction solution of PCR was used which was obtained by mixing 50 ng of a cDNA as a template, each 1 μl of two kinds of 10 pmol/μl aforementioned primer solution, 4 μl of 2.5 mM dNTP, 4 μl of 5 mM dUTP, 5 μl of 10×SYBR Green PCR Buffer, 6 μof 25 mM MgCl2 and 0.3 μl of a 5 U/μl thermostable DNA polymerase (AmpliTaq Gold), 0.5 μl of AmpEraseUNG and adding sterilized ultrapure water thereto to an amount of solution of 50 μl. […] When a DNA derived from mRNA of Neurofilament3 gene and GAPDH gene was amplified, after the reaction solution Was retained at 95° C. for 10 minutes, Real Time PCR was performed at the conditions under which each cycle was 30 seconds at 95° C., 30 seconds at 59° C. and 30 seconds at 72° C. to quantitate Neurofilament3 gene and GAPDH gene.

Neurofilament3 gene [2] = experiment: Real Time PCR of Neurofilament3 mRNA in HPAC cultured with methylation inhibitor; format: cell-based, human; conditions: HPAC pancreatic cancer cell line, cells recovered on fourth day, not detected without inhibitor
Protocol: as §1, §2

[3] = 0.5 μM 5Aza-dC added on first and third day
[4] = 1 μM 5Aza-dC added on first and third day

Measured: DNA derived from a mRNA of Neurofilament3 gene (expression of Neurofilament3 gene)

Nc1ncn([C@H]2C[C@H](O)[C@@H](CO)O2)c(=O)n1 [5Aza-dC, 5-aza-2′-deoxytidine]
detected: Neurofilament3 gene [1]; [3] | Neurofilament3 gene [1]; [4] | Neurofilament3 gene [2]; [3] | Neurofilament3 gene [2]; [4]
